# Assay results published in ChEMBL document CHEMBL5653594, “ZD1839 (Iressa): an orally active inhibitor of epidermal growth factor signaling with potential for cancer therapy” (Cancer Res, 2002).
# Key:
# [1] = tested on: A-431; assay: Antitumor activity against human A-431 cells xenografted in Swiss nu/nu mouse assessed as c-fos mRNA expression at 50 mg/kg measured after 6 to 36 hrs by RT-PCR analysis relative to control; format: functional; settings: time 6-36 hrs
# [2] = tested on: A-431; assay: Antitumor activity against human A-431 cells xenografted in po dosed Swiss nu/nu mouse assessed as reduction in c-fos mRNA expression measured after 4 days by RT-PCR analysis; format: functional, organism-based; settings: dose 12.5-200 mg/kg, time 4.0 day
# [3] = tested on: A-431; assay: Antitumor activity against human A-431 cells xenografted in Swiss nu/nu mouse assessed as reduction in c-fos mRNA expression at 50 mg/kg measured after 36 hrs by RT-PCR analysis relative to control; format: functional; parameters: scale not given: the % may be the effect or the level left
# [4] = tested on: A-431; assay: Antitumor activity against human A-431 cells xenografted in Swiss nu/nu mouse assessed as reduction in c-fos mRNA expression at 200 mg/kg measured after 36 hrs by RT-PCR analysis relative to control; format: functional; parameters: scale not given: the % may be the effect or the level left
smiles,measurement,setting,value
COc1cc2ncnc(Nc3ccc(F)c(Cl)c3)c2cc1OCCCN1CCOCC1 [GEFITINIB],Activity,[1],5%
same,Activity,[2],Dose-Dependent Effect
same,Activity,[3],94%
same,Activity,[4],>99%
